Results as given in patent US6126909A, “Process and apparatus for the production of BI-212 and a use thereof” (Arch Development Corporation, priority 1999, dated 2000).

What was measured:
microscopic carcinoma = conditions: in vivo; cited from earlier work
[1] = system: NIH:OVCAR-3 cells (spheroids); assay: In vitro irradiation survival, spheroids; format: cell-based, human; conditions: OVCAR-3 spheroids
Description: (§1) In vitro studies were carried out using three well known cell lines, the cells from which were exposed to radiation from: (1) an X-ray source; (2) P-32 chromic phosphate; and (3) Bi-212 chloride. The three cell lines that were used are V-79, which is a Chinese hamster lung fibroblast, Ehrlich-Lettre Ascites carcinoma (ATCC CCL 77), which is an ascites producing -tumor, and NIH:OVCAR-3 (ATCC HTB 161), which is a human ovarian adenocarcinoma. These well known cell lines are predictive of what happens in vivo. The cells were grown as monolayers and into spheroid formations and subsequently irradiated, as described herein.
(§2) The V-79 cells were maintained under exponential growth conditions in minimal essential medium (MEM) supplemented with 10 percent fetal bovine serum. The Ehrlich-Lettre Ascites carcinoma cells were maintained in 90 percent NCTC 109 supplemented with 10 percent fetal bovine serum. The NIH:OVCAR-3 cells were maintained in RPMI 1640 and 10 percent fetal bovine serum.
To initiate the formation of the spheroids, cells at a concentration of about 500,000 cells per flask were seeded onto petri dishes base-cooked with 1 percent agar MEM without serum. After spheroids having a size of about 20 micrometers (μm) formed, the spheroids were transferred to spinner bottles and maintained for two to three weeks at a temperature of 37° C. in a CO2 incubator until they grew to 10 to 1000 μm. Prior to irradiation, the spheroids were sized and separated using a spheroid separation column.
(§3) Cells from each of the cell lines were irradiated by subjecting the cells to X-ray radiation, P-32, and Bi-212. The X-ray source that was used is a General Electric 250 kvp Maxitron, 26 […] (mA) (HVL 1.5 mm Cu) operated at a dose rate of 1.11 Greys per minute (Gy/min). The cells, in both monolayer and spheroid form were exposed at room temperature and then immediately plated for survival.
(§4) Cells in both monolayer and spheroid were exposed to P-32 chromic phosphate. The radiation dose to each sample was calculated as: […]
(§5) After exposure, the cells were washed in phosphate-buffered saline (PBS) and immediately plated for survival.
The cell lines were also irradiated using Bi-212. […] The filter was purged with 1 ml of distilled deionized water, and the radioactivity was assayed using a calibrated 3×3-in. […]
(§6) Cells were exposed over a period of four hours. The dose (D) per microCurie was calculated and corrected for decay as follows: [formula] where V=volume in milliliters, and […]
(§7) Following plating, survival measurements were taken for each of the irradiated cell samples. […] The plates were then stained with crystal violet and colonies greater than 50 cells were scored. The surviving fraction was then determined.
Intrinsic radiosensitivity (Do) was calculated from the survival curves. […]

NIH:OVCAR-3 cells = assay: In vitro irradiation survival (clonogenic), monolayer; format: cell-based, human; conditions: OVCAR-3 monolayer
Description: as §1, §2, §3, §4, §5
(§8) The cell lines were also irradiated using Bi-212. Bismuth-212 was eluted from a generator as described in the aforementioned patent to Atcher et al., which was a cation-exchange column supporting Ra-224, with 1 ml of 0.15 N HI, and the generator was purged with 2 ml of distilled deionized water. […] The filter was purged with 1 ml of distilled deionized water, and the radioactivity was assayed using a calibrated 3×3-in. […]
as §6, §7
(§9) Intrinsic radiosensitivity (Do) was calculated from the survival curves. […] Relative biological effectiveness (RBE) was determined as the ratio of the absorbed dose of X-ray to that of alpha radiation to produce the same degree of biological effect.

[2] = system: microscopic disease (ovarian carcinoma); conditions: stage I and stage II patients; cited from earlier work
V-79 cells = assay: In vitro irradiation survival (clonogenic), monolayer; format: cell-based, Chinese hamster; conditions: V-79 monolayer
Description: as §1, §2, §3, §4, §5, §8, §6, §7, §9

[3] = dose increment reducing survival to 37 percent

SMILES	Treatment and eradication of microscopic carcinoma (microscopic carcinoma)	D0 (intrinsic radiosensitivity) ([1]; dose to 37 percent survival) [Gy]	Relative biological effectiveness (RBE) ([1]; relative to X-ray)	D0 (intrinsic radiosensitivity) (NIH:OVCAR-3 cells; [3]) [Gy]	Relative biological effectiveness (RBE) (NIH:OVCAR-3 cells; relative to X-ray)	Five-year survival rate [2] [%]	D0 (intrinsic radiosensitivity) (V-79 cells; [3]) [Gy]	Relative biological effectiveness (RBE) (V-79 cells; relative to X-ray)
[211At] [At-211, astatine-211]	effective in the treatment and eradication of microscopic carcinoma							
O=[32P]([O-])([O-])[O-].[Cr+3] [P-32 chromic phosphate, chromic phosphate (P-32), reference compound]		1.1	1.07	1.40	1.43	81	1.25	1.63
[212Pb] [Pb-212, lead-212]	effective in the treatment and eradication of microscopic carcinoma							
